Test results from ChEMBL document CHEMBL3045663, “Synthesis and Activity of Novel Acaricidal/Insecticidal 2, 4-Diphenyl-1, 3-oxazolines” (J Pestic Sci, 2002).
In brackets after ≈: the same amount, converted by molar mass.

Legend:
Tetranychus urticae [1] = experiment: Acaricidal activity against Tetranychus urticae (two-spotted spider mite) in compound treated kidney bean leaf assessed as mortality of egg at 1000 ppm at 24 degC measured after 1 week; type: functional; settings: 168 h
Nephotettix cincticeps = experiment: Insecticidal activity against Nephotettix cincticeps (green rice leafhopper) in compound treated rice seedlings assessed as mortality at 500 ppm; type: functional
Plutella xylostella = experiment: Insecticidal activity against Plutella xylostella (diamondback moth) in compound treated radish leaf assessed as mortality at 500 ppm; type: functional
Tetranychus urticae [2] = experiment: Acaricidal activity against Tetranychus urticae (two-spotted spider mite) in compound treated kidney bean leaf assessed as larvicidal activity; type: functional
Myzus persicae = experiment: Insecticidal activity against Myzus persicae (green peach aphid) in compound treated radish leaf assessed as mortality at 500 ppm; type: functional
Chilo suppressalis = experiment: Insecticidal activity against Chilo suppressalis (rice stem borer) larvae assessed as inhibition of incorporation of N-acetyl-[1-14C]glucosamine; type: functional, organism-based

Structure (SMILES) | mortality at 1000 ppm (Tetranychus urticae [1]) | mortality at 500 ppm (Nephotettix cincticeps) | mortality at 500 ppm (Plutella xylostella) | LC50 (Tetranychus urticae [2]) | mortality at 500 ppm (Myzus persicae) | EC50 (Chilo suppressalis)
c1ccc(Oc2ccccc2C2=NC(c3ccccc3)CO2)cc1 (stereo unspecified) | 0% | 0% | 0% | 100 µg/mL (≈ 317 µM) | 0% | 
Fc1cccc(F)c1C1=NC(c2ccccc2)CO1 (stereo unspecified) | 0% | 35% | 0% | 1 µg/mL (≈ 3.86 µM) | 100% | 
O=[N+]([O-])c1ccccc1C1=NC(c2ccccc2)CO1 (stereo unspecified) | 10% | 0% | 0% | 100 µg/mL (≈ 373 µM) | 0% | 
Clc1ccc(Cl)c(C2=NC(c3ccccc3)CO2)c1 (stereo unspecified) | 0% | 0% | 35% | 100 µg/mL (≈ 342 µM) | 0% | 
Cc1ccc(C2=NC(c3ccccc3)CO2)cc1 (stereo unspecified) | 0% | 0% | 0% | > 1000 µg/mL | 0% | 
CCSc1ccccc1C1=NC(c2ccccc2)CO1 (stereo unspecified) | 10% | 10% | 10% | 100 µg/mL (≈ 353 µM) | 0% | 
Clc1cccc(C2=NC(c3ccccc3)CO2)c1 (stereo unspecified) | 10% | 0% | 60% | 100 µg/mL (≈ 388 µM) | 0% | 
Fc1cccc(F)c1-c1ncc(-c2ccccc2)o1 | 0% | 0% | 0% | 100 µg/mL (≈ 389 µM) | 0% | 
COc1ccccc1C1=NC(c2ccccc2)CO1 (stereo unspecified) | 0% | 10% | 10% | 10 µg/mL (≈ 39.5 µM) | 0% | 
Ic1ccccc1C1=NC(c2ccccc2)CO1 (stereo unspecified) | 10% | 0% | 35% | 1 µg/mL (≈ 2.86 µM) | 0% | 
CC1(c2ccccc2)COC(c2c(F)cccc2F)=N1 (stereo unspecified) | 0% | 0% | 0% | 100 µg/mL (≈ 366 µM) | 0% | 
O=C(NC(=O)c1c(F)cccc1F)Nc1ccc(Cl)cc1 [DIFLUBENZURON] |  |  |  |  |  | 20 nM
Fc1cccc(F)c1C1=NC(c2ccccc2)CS1 (stereo unspecified) | 0% | 0% | 0% | 10 µg/mL (≈ 36.3 µM) | 0% | 
Clc1cccc(C2=NC(c3ccccc3)CO2)c1Cl (stereo unspecified) | 0% | 0% | 0% | 10 µg/mL (≈ 34.2 µM) | 0% | 
Clc1cccc(Cl)c1C1=NC(c2ccccc2)CO1 (stereo unspecified) | 0% | 0% | 10% | 1 µg/mL (≈ 3.42 µM) | 10% | 
Cc1cccc(C2=NC(c3ccccc3)CO2)c1 (stereo unspecified) | 0% | 10% | 0% | > 1000 µg/mL | 0% | 
Brc1ccccc1C1=NC(c2ccccc2)CO1 (stereo unspecified) | 10% | 0% | 60% | 0.1 µg/mL (≈ 0.331 µM) | 0% | 
Clc1ccc(C2=NC(c3ccccc3)CO2)c(Cl)c1 (stereo unspecified) | 10% | 0% | 10% | 10 µg/mL (≈ 34.2 µM) | 0% | 
c1ccc(C2=NC(c3ccccc3)CO2)cc1 (stereo unspecified) | 0% | 0% | 60% | 10 µg/mL (≈ 44.8 µM) | 0% | 
Fc1cccc(F)c1C1=NCC(c2ccccc2)O1 (stereo unspecified) | 0% | 10% | 35% | 1 µg/mL (≈ 3.86 µM) | 85% | 
Fc1ccccc1C1=NC(c2ccccc2)CO1 (stereo unspecified) | 10% | 10% | 35% | 10 µg/mL (≈ 41.4 µM) | 0% | 
Fc1cccc(Cl)c1C1=NC(c2ccccc2)CO1 (stereo unspecified) | 0% | 35% | 0% | 0.01 µg/mL (≈ 0.0363 µM) | 10% | 
Cc1ccccc1C1=NC(c2ccccc2)CO1 (stereo unspecified) | 60% | 0% | 60% | 100 µg/mL (≈ 421 µM) | 60% | 
Clc1ccc(C2=NC(c3ccccc3)CO2)cc1 (stereo unspecified) | 0% | 0% | 60% | 100 µg/mL (≈ 388 µM) | 0% | 
COc1ccc(C2=NC(c3ccccc3)CO2)cc1 (stereo unspecified) | 0% | 10% | 0% | 100 µg/mL (≈ 395 µM) | 0% | 
